Results from ChEMBL document CHEMBL1129814, “Synthesis of thiophenes and thieno[3,2-c]pyran-4-ones as antileishmanial and antifungal agents” (1997).
≈ marks a conversion by molar mass, not a printed value.

What was measured:
Sporothrix schenckii = experiment: In vitro for antifungal activity against Sporothrix schenck ii (SS-1); format: functional
Leishmania donovani = experiment: An vitro anti-leishmanial activity against Leishmania donovani promastigotes (25 uM); format: functional
Cryptococcus neoformans = experiment: Antifungal activity against Cryptococcus neoformans (CN-17); format: functional
Aspergillus fumigatus = experiment: Antifungal activity against Aspergillus fumigatus (AF-27); format: functional
Trichophyton benhamiae = experiment: In vitro for antifungal activity against Trichophyton mentagrophytes (A-280); format: functional, Arthroderma benhamiae
Candida albicans = experiment: Antifungal activity against Candida albicans (SKF); format: functional

SMILES | MIC (Sporothrix schenckii) [µg/mL] | Growth inhibition (Leishmania donovani) [%] | MIC (Cryptococcus neoformans) [µg/mL] | MIC (Aspergillus fumigatus) [µg/mL] | MIC (Trichophyton benhamiae) [µg/mL] | MIC (Candida albicans) [µg/mL]
CCOC(=O)c1sc(SC)c(C(=O)OCC)c1O | > 100 | 63 | > 100 | > 100 | > 100 | > 100
CCOC(=O)c1sc2cc(-c3cccc([N+](=O)[O-])c3)oc(=O)c2c1N | > 100 | 28 | > 100 | > 100 | > 100 | > 100
CCOC(=O)c1sc2cc(-c3ccc(Cl)cc3)oc(=O)c2c1N | > 100 | 24 | > 100 | > 100 | > 100 | > 100
CSc1cc(-c2ccc(Br)cc2)c(C(=O)O)s1 | > 100 | 100 | > 100 | > 100 | 50 (≈ 152 µM) | > 100
CCOC(=O)c1sc(SC)cc1-c1ccc(Br)cc1 | > 100 | 20 | > 100 | > 100 | > 100 | > 100
CCOC(=O)c1sc(SC)cc1-c1cccnc1 | 25 (≈ 89.5 µM) | 25 | 50 (≈ 179 µM) | 50 (≈ 179 µM) | 25 (≈ 89.5 µM) | 25 (≈ 89.5 µM)
CCOC(=O)c1sc(SC)cc1-c1ccccc1 | > 100 | 30 | > 100 | > 100 | > 100 | > 100
CCOC(=O)c1sc2cc(-c3cccnc3)oc(=O)c2c1N | > 100 | 15 | > 100 | > 100 | > 100 | > 100
CCOC(=O)c1sc2cc(-c3cc(F)c(Cl)cc3Cl)oc(=O)c2c1N | > 100 | 70 | > 100 | > 100 | > 100 | > 100
CSc1cc(-c2ccc(Cl)cc2)c(C(=O)O)s1 | > 100 | 30 | > 100 | > 100 | > 100 | > 100
CCOC(=O)c1sc(SC)cc1-c1ccc(F)cc1 | > 100 | 95 | > 100 | > 100 | > 100 | > 100
CCOC(=O)c1sc2cc(-c3ccc([N+](=O)[O-])cc3)oc(=O)c2c1N | > 100 | 20 | > 100 | > 100 | > 100 | > 100
CCOC(=O)c1sc(SC)c(C#N)c1N | > 100 | 25 | > 100 | > 100 | > 100 | > 100
CCOC(=O)c1sc2cc(-c3ccc(F)cc3)oc(=O)c2c1N | > 100 | 30 | > 100 | > 100 | > 100 | > 100
CSc1cc(-c2cccnc2)c(C(=O)O)s1 | > 100 | 25 | > 100 | > 100 | > 100 | > 100
CCOC(=O)c1sc(SC)cc1-c1ccc(C)cc1 | > 100 | 100 | > 100 | > 100 | > 100 | > 100
CCOC(=O)c1sc2cc(-c3ccc(Br)cc3)oc(=O)c2c1N | > 100 | 8 | > 100 | > 100 | > 100 | > 100
CCOC(=O)c1sc(SC)cc1-c1ccc(Cl)cc1 | > 100 | 55 | > 100 | > 100 | > 100 | > 100
CSc1cc(-c2ccc(C)cc2)c(C(=O)O)s1 | > 100 | 10 | > 100 | > 100 | > 100 | > 100
CCOC(=O)c1sc2cc(-c3ccc(OC)cc3)oc(=O)c2c1N | > 100 | 10 | > 100 | > 100 | > 100 | > 100
CSc1cc(-c2ccc(F)cc2)c(C(=O)O)s1 | > 100 | 40 | > 100 | > 100 | 50 (≈ 186 µM) | > 100
CCOC(=O)c1sc(SC)c(C(=O)OC)c1O | 12.5 (≈ 45.2 µM) | 95 | 12.5 (≈ 45.2 µM) | 25 (≈ 90.5 µM) | 6.25 (≈ 22.6 µM) | 50 (≈ 181 µM)
CCOC(=O)c1sc(SC)c(C#N)c1O | > 100 | 60 | > 100 | > 100 | 50 (≈ 206 µM) | > 100
CC(=O)N1CCN(c2ccc(OC[C@H]3CO[C@](Cn4ccnc4)(c4ccc(Cl)cc4Cl)O3)cc2)CC1 [KETOCONAZOLE] | 0.1 (≈ 0.188 µM) | – | 0.3 (≈ 0.565 µM) | 0.7 (≈ 1.32 µM) | 25 (≈ 47 µM) | 0.1 (≈ 0.188 µM)
N=C(N)c1ccc(OCCCCCOc2ccc(C(=N)N)cc2)cc1 [PENTAMIDINE] | – | 100 | – | – | – | –
